Experimental data: patent US10570152B2, “Antibacterial therapeutics and prophylactics” (VYOME BIOSCIENCES PVT. LTD., priority 2015, dated 2020)
In brackets after ≈: the same amount, converted by molar mass. Read-outs that look alike come from different tables or passages of the source.

Assays:
[1] = test system: A. baumannii ATCC 1906; test: MIC by micro broth dilution; type: cell-based; conditions: Acinetobacter baumannii, ATCC1906, read-out: Minimum inhibitory concentration (MIC)
Procedure: (§1) MIC of DART molecules were determined by micro broth dilution as per CLSI guidelines. Bacterial strains were cultured in Brain Heart Infusion Agar (BHIA) at 37° C. for 24 h. For MIC determination, BHI broth (100 μl) was added to each of the wells of a 96 well plate. 100 μl of broth containing drug was added to the first well (1A to 1H) and thereafter serial (double) dilutions were carried out for up to 10 wells (column 1 to column 10 of the 96 well plate). Bacterial inoculum was prepared by adjusting the bacterial culture turbidity to 0.5 McFarland standard (approximately 1.5×10^8 cells/ml) and further diluted (100 times with sterile BHI broth). Diluted bacterial suspension (100 μl) was added to each well except sterility control wells (column 12 of 96 well plate). The plates were incubated at 37° C. for 24 h. The MIC of the test compound was measured after addition of Alamar blue dye.

[2] = test system: A. baumannii CCARM 12001; test: MIC by micro broth dilution; type: cell-based; conditions: Acinetobacter baumannii, CCARM12001, read-out: Minimum inhibitory concentration (MIC)
Procedure: as §1

[3] = test system: A. baumannii CCARM 12020; test: MIC by micro broth dilution; type: cell-based; conditions: Acinetobacter baumannii, CCARM12020, read-out: Minimum inhibitory concentration (MIC)
Procedure: as §1

[4] = test system: E. coli BAA 196; test: MIC by micro broth dilution; type: cell-based; conditions: Escherichia coli, BAA196, read-out: Minimum inhibitory concentration (MIC)
Procedure: as §1

[5] = test system: E. coli MTCC 1687; test: MIC by micro broth dilution; type: cell-based; conditions: Escherichia coli, MTCC1687, read-out: Minimum inhibitory concentration (MIC)
Procedure: as §1

[6] = test system: E. faecium NCIM 5421; test: MIC by micro broth dilution; type: cell-based; conditions: Enterococcus faecium, NCIM5421, read-out: Minimum inhibitory concentration (MIC)
Procedure: as §1

[7] = test system: K. pneumonia ATCC 13883; test: MIC by micro broth dilution; type: cell-based; conditions: for MIC: Klebsiella pneumoniae, ATCC13883, K. pneumonia ATCC 13883, read-out: Minimum inhibitory concentration (MIC); for activity in words: Klebsiella pneumonia (susceptible)
Procedure: as §1

[8] = test system: P. aeruginosa ATCC 27853; test: MIC by micro broth dilution; type: cell-based; conditions: Pseudomonas aeruginosa, ATCC27853, read-out: Minimum inhibitory concentration (MIC)
Procedure: as §1

[9] = test system: P. aeruginosa CCARM 2161; test: MIC by micro broth dilution; type: cell-based; conditions: Pseudomonas aeruginosa, CCARM2161, read-out: Minimum inhibitory concentration (MIC)
Procedure: as §1

[10] = test system: P. aeruginosa CCARM 2204; test: MIC by micro broth dilution; type: cell-based; conditions: Pseudomonas aeruginosa, CCARM2204, read-out: Minimum inhibitory concentration (MIC)
Procedure: as §1

[11] = test system: S. aureus ATCC 43300; test: MIC by micro broth dilution; type: cell-based; conditions: for MIC: Staphylococcus aureus, ATCC43300, S. aureus ATCC 43300, read-out: Minimum inhibitory concentration (MIC)
Procedure: as §1

[12] = test system: S. aureus CCARM 3505; test: MIC by micro broth dilution; type: cell-based; conditions: Staphylococcus aureus, CCARM3505, read-out: Minimum inhibitory concentration (MIC)
Procedure: as §1

[13] = test system: S. aureus MTCC 6908; test: MIC by micro broth dilution; type: cell-based; conditions: Staphylococcus aureus, MTCC6908, read-out: Minimum inhibitory concentration (MIC)
Procedure: as §1

[14] = test system: S. epidermidis ATCC 35984; test: MIC by micro broth dilution; type: cell-based; conditions: Staphylococcus epidermidis, ATCC35984, read-out: Minimum inhibitory concentration (MIC)
Procedure: as §1

[15] = test system: S. epidermidis S12-1; test: MIC by micro broth dilution; type: cell-based; conditions: Staphylococcus epidermidis, S121, read-out: Minimum inhibitory concentration (MIC)
Procedure: as §1

[16] = test system: S. epidermidis ATCC 35984 biofilm; test: Biofilm disruption assay (MTT) with compounds and compound loaded beads; type: cell-based; conditions: for EC50: Staphylococcus epidermidis
Procedure: S. epidermidis ATCC 35984 was grown in Brain Heart Infusion Agar (BHIA) at 37° C. for 24 h. The loop full of bacterial culture was suspended in sterile water and matched the turbidity against 0.5 McFarland Standard (approximately 1.5×10^8), 100 μl of culture suspension was added into each well of the 96 well plate and plates were incubated at 37° C. for 48 h for biofilm formation. The biofilm formed in each well was washed twice with sterile water to remove the planktonic cells. Then biofilm was treated with 100 yl of BHI broth suspended with various concentrations of DART molecules, followed by incubation of the plates at 37° C. for 24 h. Subsequently the biofilm in the wells were stained with MTT reagent and the plates were incubated at 37° C. for 2 h. The precipitate formed in the wells was dissolved in 100 μl of dimethyl sulfoxide (DMSO) and the absorbance was measured at 600 nm in multi well plate reader to determine the minimum biofilm inhibitory concentration (MBIC). The MBIC was calculated by subtracting the absorbance value of each drug treated sample from that of 48 h growth control.

[17] = test system: P. acnes CCARM 9010 induced paw inflammation; test: Anti-inflammatory action in vivo, rat paw edema model; parameters: species or system Sprague Dawley rats; conditions: topical, 24 h post initiation of treatment (32 h post induction)
Excerpt: Host inflammation is one of the crucial clinical feature of most of the indications associated with bacterial infections. The inventors used an exemplary compound of the invention (Compound 2) to test the anti-inflammatory effects in vivo using rat paw edema model. Inflammation was induced using one of the opportunistic pathogens Propionibacterium acnes prevalent in implant associated infections. Sprague Dawley rats were used for the study and infection was induced by P. acnes CCARM 9010. An inoculum of 1×10^9 CFU/ml of the heat killed bacteria was injected to the plantar side of the right hind paw (˜2×10^7 CFU/paw) except in sham control where saline was injected. Treatments were initiated 8 h post injection by applying the test formulation of Compound 2 (30 mg) twice daily to the plantar surface of the right hind paw and gently rubbing 50 times with the index finger. Comparators Acnedap (dapsone 5% gel) and adapalene gel (Adaferin®) were applied twice daily and once daily based on clinical prescription dosage. Paw sizes were measured in millimeters using Vernier calipers at the start of the infection, 8 h post infection, and 24 h post initiation of treatment (32 h post induction of inflammation). The change in paw size, due to inflammation, was evaluated as the difference between the paw size measured at each time point and the basal paw size measured immediately before edema induction.

[18] = test system: E. aerogenes M2-1; test: MIC by micro broth dilution; type: cell-based; conditions: Klebsiella aerogenes, M21, read-out: Minimum inhibitory concentration (MIC)
Procedure: as §1

[19] = test system: E. aerogenes NCIM 5139; test: MIC by micro broth dilution; type: cell-based; conditions: Klebsiella aerogenes, NCIM5139, read-out: Minimum inhibitory concentration (MIC)
Procedure: as §1

[20] = test system: E. faecium CCARM 5207; test: MIC by micro broth dilution; type: cell-based; conditions: Enterococcus faecium, CCARM5207, read-out: Minimum inhibitory concentration (MIC)
Procedure: as §1

[21] = test system: E. fecalis CCARM 5168; test: MIC by micro broth dilution; type: cell-based; conditions: read-out: Minimum inhibitory concentration (MIC)
Procedure: as §1

[22] = test system: Gram negative pathogens; test: MIC interpretations, Gram negative pathogens; type: cell-based
Procedure: as §1

[23] = test system: S. epidermidis S5-2; test: Sequential ZIB (zone of inhibition) assay for PMMA beads; type: cell-based, Staphylococcus epidermidis; conditions: SmartSet HV impregnated beads
Procedure: S. epidermidis S5-2 cells were grown in Brain Heart Infusion Agar (BHIA) at 37° C. for 24 h. 100 μl of 0.5 McFarland equal bacterial suspension was spread on BHA plates. Drug loaded beads were placed above these plates. Plates were incubated at 37° C. for 24 h. Next day, zone of inhibition (ZOI) the beads were measured following which the beads were placed on fresh BHA plates with bacterial suspension spread and this experiment was continued up to seven days. The drug release pattern was determined by compiling and analyzing the ZOI data of beads on each ZOI cycle up to seven days.

Row | Compound | MIC [1] [µg/mL] | MIC [2] [µg/mL] | MIC [3] [µg/mL] | MIC [4] [µg/mL] | MIC [5] [µg/mL] | MIC [6] [µg/mL] | MIC [7] [µg/mL] | MIC [8] [µg/mL] | MIC [9] [µg/mL] | MIC [10] [µg/mL] | MIC [11] [µg/mL] | MIC [12] [µg/mL] | MIC [13] [µg/mL] | MIC [14] [µg/mL] | MIC [15] [µg/mL] | MIC [20] [µg/mL] | MIC [21] [µg/mL] | further results
1 | CC(=O)NC[C@H]1CN(c2ccc(N3CCN(CC(=O)Nc4ncc([N+](=O)[O-])s4)CC3)c(F)c2)C(=O)O1 [Compound 55, (S)-2-(4-(4-(5-(Acetamidomethyl)-2-oxooxazolidin-3-yl)-2-fluorophenyl)piperazin-1-yl)-N-(5-nitrothiazol-2-yl)acetamide] | > 16 | > 16 | > 16 | > 16 | > 16 | 0.06 (≈ 0.115 µM) | > 16 | > 16 | > 16 | > 16 | 0.5 (≈ 0.959 µM) | 0.25 (≈ 0.479 µM) | 0.25 (≈ 0.479 µM) | 0.06 (≈ 0.115 µM) | 0.5 (≈ 0.959 µM) |  |  | fold better activity in comparison to commercial linezolid ([11]; against MRSA): 8 fold; times more active than linezolid analogue ([11]; against MRSA): 8 times; EC50 ([16]; ATCC35984, 48 h biofilm, 24 h treatment, read-out: Concentration of compounds (mg/ml) for 50% biofilm disruption): > 2 mg/mL
2 | Nc1ccc(S(=O)(=O)c2ccc(N)cc2)cc1 [Dapsone, dapsone, reference compound] |  |  |  |  |  |  |  |  |  |  |  |  |  |  |  |  |  | Inhibition of inflammation (%) at 24 h post treatment [17]: 43.82%
3 | CC1SC2C(C(=O)O)C(=O)c3cc(F)c(N4CCN(CC(=O)c5ccccn5)CC4)cc3N12 (stereo not shown) [Compound 33, 6-Fluoro-1-methyl-4-oxo-7-(4-(2-oxo-2-(pyridin-2-yl)ethyl)piperazin-1-yl)-2a,3-dihydro-1H,4H-[1,3]thiazeto[3,2-a]quinoline-3-carboxylic acid] | 0.06 (≈ 0.128 µM) | 16 (≈ 34 µM) | 4 (≈ 8.5 µM) | 2 (≈ 4.25 µM) | < 0.03 | 0.125 (≈ 0.266 µM) | 0.06 (≈ 0.128 µM) | 0.5 (≈ 1.06 µM) | 16 (≈ 34 µM) | 8 (≈ 17 µM) | 0.25 (≈ 0.531 µM) | > 16 | 0.25 (≈ 0.531 µM) | 0.13 (≈ 0.276 µM) | 8 (≈ 17 µM) | 8 (≈ 17 µM) | 0.5 (≈ 1.06 µM) | MIC [18]: 0.06 µg/mL (≈ 0.128 µM); MIC [19]: 0.0312 µg/mL (≈ 0.0663 µM); activity in words [7]: active; MIC ([22]; Escherichia coli, resistant E. coli (MDR) and E. aerogens): ≤ 1 µg/mL; bio-activity (MIC) range ([22]; different resistant strains of P. aeruginosa, A. baumanni): 4 to 16 µg/mL
4 | COc1ccc(-c2ccc3cc(C(=O)O)ccc3c2)cc1C12CC3CC(CC(C3)C1)C2 [Adapalene, adapalene, reference compound] |  |  |  |  |  |  |  |  |  |  |  |  |  |  |  |  |  | Inhibition of inflammation (%) at 24 h post treatment [17]: 31.55%
5 | CC1Sc2c(C(=O)O)c(=O)c3cc(F)c(N4CCN(CC(=O)Nc5ccc6nc(N)[nH]c6c5)CC4)cc3n21 (stereo not shown) [Compound 19, 7-(4-(2-((2-Amino-1H-benzo[d]imidazol-6-yl)-amino)-2-oxoethyl)piperazin-1-yl)-6-fluoro-1-methyl-4-oxo-1H,4H-[1,3]thiazeto[3,2-a]quinoline-3-carboxylic acid] |  |  |  |  |  | > 16 |  |  |  |  | 32 (≈ 59.5 µM) | > 16 | > 64 | 16 (≈ 29.8 µM) | > 16 | > 16 | > 16 | 
6 | CN[C@H](CC(C)C)C(=O)N[C@H]1C(=O)N[C@@H](CC(N)=O)C(=O)N[C@H]2C(=O)N[C@H]3C(=O)N[C@H](C(=O)N[C@H](C(=O)O)c4cc(O)cc(O)c4-c4cc3ccc4O)[C@H](O)c3ccc(c(Cl)c3)Oc3cc2cc(c3O[C@@H]2O[C@H](CO)[C@@H](O)[C@H](O)[C@H]2O[C@H]2C[C@](C)(N)[C@H](O)[C@H](C)O2)Oc2ccc(cc2Cl)[C@H]1O [Vancomycin, reference compound] |  |  |  |  |  |  |  |  |  |  |  |  |  |  |  |  |  | Sequential ZOI ([23]; Day-1): 1.4 cm; Sequential ZOI ([23]; Day-2): 1.2 cm; Sequential ZOI ([23]; Day-3): 0.7 cm; Sequential ZOI ([23]; Day-4): 0.7 cm; Sequential ZOI ([23]; Day-5): 0 cm; Sequential ZOI ([23]; Day-6): 0 cm; Sequential ZOI ([23]; Day-7): 0 cm; Biofilm disruption ([16]; PMMA beads of 3 mm diameter): 40; EC50 ([16]; ATCC35984, read-out: Concentration of compounds (mg/ml) for 50% biofilm disruption): 0.02 to 0.03 mg/mL (≈ 13.8 to 20.7 µM)
7 | CC1Sc2c(C(=O)O)c(=O)c3cc(F)c(N4CCN(C(=O)c5ccc([N+](=O)[O-])o5)CC4)cc3n21 (stereo not shown) [Compound 11, 6-Fluoro-1-methyl-7-(4-(5-nitrofuran-2-carbonyl)piperazin-1-yl)-4-oxo-1H,4H-[1,3]thiazeto[3,2-a]-quinoline-3-carboxylic acid] | 1 (≈ 2.05 µM) | > 16 | > 16 | 1 (≈ 2.05 µM) | 0.25 (≈ 0.512 µM) | 0.625 (≈ 1.28 µM) | 0.5 (≈ 1.02 µM) | 1 (≈ 2.05 µM) | > 16 | > 16 | 0.03 (≈ 0.0614 µM) | 1 (≈ 2.05 µM) | 0.125 (≈ 0.256 µM) | < 0.03 | 0.13 (≈ 0.266 µM) | 8 (≈ 16.4 µM) | 4 (≈ 8.19 µM) | MIC [18]: 0.25 µg/mL (≈ 0.512 µM); MIC [19]: 0.125 µg/mL (≈ 0.256 µM); activity in words [7]: active
